According to patent publication US20250268903A1, “RXFP1 AGONISTS” (BRISTOL-MYERS SQUIBB COMPANY, priority 2021, published 2025):

The molecules below were run against T1, human RXFP1 (Homo sapiens, UniProt Q9HBX9) (assay: hRXFP1 HEK293 cAMP assay (HTRF)). Conditions: HEK293 cells stably expressing human RXFP1, 30 min at room temperature.
T1 construct: expressed in transfected cells
T1 sequence (Q9HBX9 1-757): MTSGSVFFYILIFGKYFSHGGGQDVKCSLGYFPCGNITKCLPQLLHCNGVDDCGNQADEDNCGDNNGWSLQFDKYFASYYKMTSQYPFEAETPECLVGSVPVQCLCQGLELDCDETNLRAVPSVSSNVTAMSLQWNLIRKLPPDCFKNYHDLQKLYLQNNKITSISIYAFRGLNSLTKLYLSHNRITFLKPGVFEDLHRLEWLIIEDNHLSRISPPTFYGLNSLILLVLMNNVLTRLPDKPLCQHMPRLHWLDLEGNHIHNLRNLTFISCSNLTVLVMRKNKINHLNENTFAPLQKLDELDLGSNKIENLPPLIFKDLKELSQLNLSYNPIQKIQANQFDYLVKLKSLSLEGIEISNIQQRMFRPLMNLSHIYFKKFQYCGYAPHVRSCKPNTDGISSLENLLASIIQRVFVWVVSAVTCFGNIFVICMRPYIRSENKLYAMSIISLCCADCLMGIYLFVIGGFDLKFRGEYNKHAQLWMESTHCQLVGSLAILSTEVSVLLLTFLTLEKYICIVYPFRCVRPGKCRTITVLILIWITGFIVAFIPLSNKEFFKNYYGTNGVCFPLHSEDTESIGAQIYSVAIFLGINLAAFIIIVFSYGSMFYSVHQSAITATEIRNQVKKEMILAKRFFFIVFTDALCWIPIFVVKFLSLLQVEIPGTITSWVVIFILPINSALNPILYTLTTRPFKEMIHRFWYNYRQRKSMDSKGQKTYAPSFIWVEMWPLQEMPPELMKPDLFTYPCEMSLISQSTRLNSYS
Type: cell-based
Procedure, shortened: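 HEK293 cells stably expressing human RXFP1 (1500 cells/well) in HBSS/20 mM HEPES/0.05% BSA/0.5 mM IBMX. Compounds were tested at 0.010 nM–50 μM final (2% DMSO) for 30 min at room temperature. cAMP was measured by HTRF and values derived by 4-parameter logistic fit.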

| Compound | EC50 |
| --- | --- |
| COc1ccc(C(C)CCO)cc1C(=O)N[C@@H]1C2CCC(/C2=C/C(F)(F)F)[C@@H]1C(=O)Nc1ccc(F)c(C(F)(F)F)c1 (single isomer, unassigned) [Example 61] | 603 nM |
| COc1ccc(CCC(C)(C)O)cc1C(=O)NC1C2CCC(/C2=C/C2CC(F)(F)C2)[C@@H]1C(=O)Nc1ccc(F)c(C(F)(F)F)c1 (stereo partly drawn) [Example 160, (2S,3R,7Z)-7-[(3,3-difluorocyclobutyl)methylidene]-N-[4-fluoro-3-(trifluoromethyl)phe-nyl]-3-[5-(3-hydroxy-3-methylbutyl)-2-methoxybenzamido] bicyclo[2.2.1]heptane-2-carboxamide] | 51 nM |
| COc1ccc(C(=O)N2CCS(=O)(=O)CC2)cc1C(=O)N[C@H]1[C@@H](C(=O)Nc2ccc(F)c(C(F)(F)F)c2)[C@H]2CC[C@@H]1/C2=C\C1CC1 [Example 242, (1R,2S,3R,4R,7Z)-7-(cyclopropyl-methylidene)-3-[5-(1,1-dioxo-1λ.^6-thiomorpholine-4-carbonyl)-2-methoxybenzamido]-N-[4-fluoro-3-(trifluoromethyl)phenyl]bicyclo [2.2.1] heptane-2-carboxamide] | 261 nM |
| COc1ccc(C(=O)N2CC[C@H](O)C2)cc1C(=O)N[C@H]1[C@@H](C(=O)Nc2ccc(F)c(C(F)(F)F)c2)[C@H]2CC[C@@H]1/C2=C\C1CC1 [Example 254, (1R,2S,3R, 4R,7Z)-7-(cyclopropyl-methylidene)-N-[4-fluoro-3-(trifluoromethyl)phenyl]-3-{5-[(3S)-3-hydroxypyrrolidine-1-carbonyl]-2-methoxybenzamido} bicyclo[2.2.1] heptane-2-carboxamide] | 54 nM |
| COc1ccc(CCC(C)(C)O)cc1C(=O)N[C@@H]1C2CCC(/C2=C/C2CC2)[C@@H]1C(=O)Nc1ccc(F)c(C(F)(F)F)c1 (stereo partly drawn) [Example 90, (2S,3R,7Z)-7-(cyclopropylmethyli-dene)-N-[4-fluoro-3-(trifluoromethyl)phe-nyl]-3-[5-(3-hydroxy-3-methylbutyl)-2-methoxybenzamido] bicyclo[2.2.1]heptane-2-carboxamide] | 14 nM |
| COc1ccc(S(=O)(=O)N2CCN(C(=O)OC(C)(C)C)CC2CCO)cc1C(=O)N[C@H]1[C@@H](C(=O)Nc2ccc(F)c(C(F)(F)F)c2)[C@H]2CC[C@@H]1/C2=C\C(F)(F)F (stereo partly drawn) [Example 215, tert-butyl 4-(3-{[(1R,2R,3S,4R,7Z)-3-{[4-fluoro-3-(trifluoromethyl)phenyl]carbamoyl}-7-(2.2,2-trifluoroethylidene)bicyclo[2.2.1]heptan-2-yl]carbamoyl}-4-methoxy-benzenesulfonyl)-3-(2-hydroxyethyl) piperazine-1-carboxylate] | 761 nM |
| COc1ccc(COC2CC=CC2)cc1C(=O)N[C@H]1[C@@H](C(=O)Nc2ccc(F)c(C(F)(F)F)c2)[C@H]2CC[C@@H]1/C2=C\C1CC1 [Example 285, (1R,2S,3R,4R,7Z)-3-{5-[(cyclopent-3-en-1-yloxy)methyl]-2-methoxybenzamido}-(cyclopropylmethyl-idene)-N-[4-fluoro-3-(trifluoromethyl)phenyl]bicyclo [2.2.1]heptane-2-carboxamide] | 226 nM |
| COc1ccc(COCCC(=O)O)cc1C(=O)N[C@@H]1C2CCC(C2=C(C)C)[C@@H]1C(=O)Nc1ccc(F)c(C(F)(F)F)c1 (stereo partly drawn) [Example 30, 3-[(3-{[(2R,3S)-3-{[4-fluoro-3-(trifluoromethyl)phe-nyl]carbamoyl}-7-(propan-2-ylidene)bicyclo[2.2.1]heptan-2-yl]carbamoyl}-4-methoxyphenyl)meth-oxy]propanoic acid] | 710 nM |
| COc1ccc(CCC(O)C(F)(F)F)cc1C(=O)N[C@@H]1C2CCC(/C2=C/C(F)(F)F)[C@@H]1C(=O)Nc1ccc(F)c(C(F)(F)F)c1 (stereo partly drawn) [Example 100, (2S,3R,7Z)-N-[4-fluoro-3-(trifluoromethyl)phe-nyl]-3-[2-methoxy-5-(4,4,4-trifluoro-3-hydroxybutyl)benza-mido]-7-(2,2,2-trifluoroethylidene)bi-cyclo[2.2.1]heptane-2-carboxamide] | 372 nM |
